Measured values taken from ChEMBL document CHEMBL1122795 (J Med Chem, 1984).
One block for each molecule: values may come before it.

Key:
[1] = species on record: Canis familiaris; assay: Inhibition of the response to phenethylamine was measured; format: functional; settings: Canis lupus familiaris
[2] = biological target: T1, Monoamine oxidase (Rattus norvegicus, UniProt P19643+P21396); assay: In vitro inhibitory concentration against monoamine oxidase with 5-HT as substrate; format: protein assay; settings: mouse
T1 sequence (P19643 whole entry): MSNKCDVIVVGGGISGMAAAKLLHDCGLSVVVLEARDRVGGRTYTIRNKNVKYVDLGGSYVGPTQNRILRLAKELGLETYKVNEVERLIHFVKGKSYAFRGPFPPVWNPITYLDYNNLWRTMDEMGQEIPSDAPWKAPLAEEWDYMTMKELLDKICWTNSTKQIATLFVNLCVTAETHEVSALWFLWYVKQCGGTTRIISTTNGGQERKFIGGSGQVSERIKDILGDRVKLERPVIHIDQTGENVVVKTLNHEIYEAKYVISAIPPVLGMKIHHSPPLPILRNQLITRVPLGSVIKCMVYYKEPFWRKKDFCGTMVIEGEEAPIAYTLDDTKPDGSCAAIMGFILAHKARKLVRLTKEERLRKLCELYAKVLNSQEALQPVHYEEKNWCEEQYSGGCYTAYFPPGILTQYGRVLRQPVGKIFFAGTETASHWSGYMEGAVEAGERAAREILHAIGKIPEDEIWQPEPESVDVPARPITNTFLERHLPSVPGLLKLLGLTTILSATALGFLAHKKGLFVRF
T1 sequence (P21396 whole entry): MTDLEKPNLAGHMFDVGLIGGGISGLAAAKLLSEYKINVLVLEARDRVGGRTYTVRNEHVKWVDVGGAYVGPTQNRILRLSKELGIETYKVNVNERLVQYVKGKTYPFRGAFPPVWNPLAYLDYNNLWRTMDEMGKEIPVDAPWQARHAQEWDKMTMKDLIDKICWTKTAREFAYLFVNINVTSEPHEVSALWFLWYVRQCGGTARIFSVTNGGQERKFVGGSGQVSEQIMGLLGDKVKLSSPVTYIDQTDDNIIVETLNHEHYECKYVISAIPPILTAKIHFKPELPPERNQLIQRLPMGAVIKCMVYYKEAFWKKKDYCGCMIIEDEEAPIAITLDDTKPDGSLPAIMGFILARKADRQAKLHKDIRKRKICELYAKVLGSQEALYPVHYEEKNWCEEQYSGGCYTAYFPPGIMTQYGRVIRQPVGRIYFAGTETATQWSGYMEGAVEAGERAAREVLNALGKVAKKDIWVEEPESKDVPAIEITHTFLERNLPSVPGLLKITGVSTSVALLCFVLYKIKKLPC

[3] = tested on: Mus musculus; assay: Effective dose (p.o.) required to reverse ptosis induced by tetrabenazine in mouse; format: functional; settings: po
[4] = species on record: Mus musculus; assay: Effective dose against oxotremorine induced lacrimation; format: functional
[5] = species on record: Mus musculus; assay: Effective dose against oxotremorine induced tremor; format: functional
[6] = tested on: Rattus norvegicus; assay: Effective dose (p.o.) required to reverse ptosis induced by tetrabenazine in rat; format: functional; settings: po
[7] = species on record: Canis familiaris; assay: Potentiation of the response to norepinephrine was measured; format: functional; settings: Canis lupus familiaris
[8] = Acute toxicity (p.o.) after 24 hr was determined in mouse; format: organism-based; settings: in vivo, po

KI50 [2]: > 0.001 M l-1
SMILES: Cl.c1ccc2c(c1)C1c3ccccc3C2C2CNCCC12 (stereo not drawn)
ED50 [1]: 1.2 mg/kg | ED50 [3]: 0.41 mg/kg | ED50 [4]: > 243 mg/kg | ED50 [5]: > 243 mg/kg | ED50 [6]: 0.5 mg/kg | ED50 [7]: 0.22 mg/kg

SMILES: CN1CCC2C3c4ccccc4C(c4ccccc43)C2C1.Cl (stereo not drawn)
ED50 [3]: 1 mg/kg | ED50 [4]: 36 mg/kg | ED50 [5]: 100 mg/kg

SMILES: CN(C)CCC=C1c2ccccc2CCc2ccccc21 [AMITRIPTYLINE]
ED50 [1]: 1.1 mg/kg | ED50 [3]: 1.3 mg/kg | ED50 [4]: 27 mg/kg | ED50 [5]: 21 mg/kg | ED50 [6]: 12 mg/kg | LD50 at 24 h [8]: 177 mg/kg | ED50 [7]: 1 mg/kg

SMILES: CN(C)CCCN1c2ccccc2CCc2ccccc21 [IMIPRAMINE]
ED50 [1]: 1.5 mg/kg | ED50 [3]: 1.3 mg/kg | ED50 [4]: 130 mg/kg | ED50 [5]: 70 mg/kg | ED50 [6]: 4.12 mg/kg | ED50 [7]: 3 mg/kg
